Laboratory results as given in ChEMBL document CHEMBL1201862, “PubChem BioAssay data set” (2004).
The source made the active and inactive calls. No stated cut-off is given here; in the data, actives have a measured IC50 and inactives only a lower limit.

Target: Envelope glycoprotein gp160 (Human immunodeficiency virus 1, UniProt Q6QLK5)
Test: cell-free HIV fusion peptide-binding blockers – biochemical, uHTS, fluorescence dequenching, […] (AID 1986)

Chain of Envelope glycoprotein gp160 (Q6QLK5 whole entry, the tested form may be a part): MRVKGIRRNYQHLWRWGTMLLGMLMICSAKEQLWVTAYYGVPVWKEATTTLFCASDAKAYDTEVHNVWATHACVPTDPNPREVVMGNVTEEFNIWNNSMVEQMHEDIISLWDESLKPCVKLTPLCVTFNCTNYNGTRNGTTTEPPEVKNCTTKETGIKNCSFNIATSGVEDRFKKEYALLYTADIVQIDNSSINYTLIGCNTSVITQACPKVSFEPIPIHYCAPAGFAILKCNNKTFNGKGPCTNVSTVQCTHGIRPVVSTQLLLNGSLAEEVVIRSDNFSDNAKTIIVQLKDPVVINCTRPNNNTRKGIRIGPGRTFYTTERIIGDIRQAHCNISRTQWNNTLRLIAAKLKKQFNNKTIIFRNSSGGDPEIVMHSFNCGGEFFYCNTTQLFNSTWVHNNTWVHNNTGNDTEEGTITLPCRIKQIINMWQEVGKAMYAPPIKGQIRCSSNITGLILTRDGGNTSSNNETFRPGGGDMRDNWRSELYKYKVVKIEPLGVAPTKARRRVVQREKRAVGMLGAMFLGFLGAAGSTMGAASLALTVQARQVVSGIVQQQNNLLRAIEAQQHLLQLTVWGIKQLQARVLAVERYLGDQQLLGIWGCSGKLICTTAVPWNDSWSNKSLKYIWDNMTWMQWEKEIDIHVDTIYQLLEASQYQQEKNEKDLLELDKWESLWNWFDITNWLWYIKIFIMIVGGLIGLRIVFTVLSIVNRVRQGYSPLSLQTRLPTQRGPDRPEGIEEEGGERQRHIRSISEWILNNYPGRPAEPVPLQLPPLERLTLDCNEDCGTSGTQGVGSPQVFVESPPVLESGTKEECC

| Structure (SMILES) | IC50 |
| --- | --- |
| CC1=C(C(=O)OC(C)C)C(c2ccc(Cl)cc2)n2c(s/c(=C\c3ccc(OCC(=O)O)cc3)c2=O)=N1 (configuration not stated) | 13.4 µM (active) |
| CN(C)S(=O)(=O)c1cccc(-c2nn(-c3ccccc3)cc2/C=C2\SC(=S)N(CC(=O)O)C2=O)c1 | 15.3 µM (active) |
